In patent publication US5229367A, “Antiinflammatory peptide derived from human lipocortin V” (Sclavo S.p.A., priority 1991, dated 1993):
In brackets after ≈: the same amount, converted by molar mass. Like-named read-outs stand apart in the source and are kept apart here. Peptide text beside a SMILES is read from it.

Legend:
[1] = tested on: rat peritoneal leukocytes; test: Inhibition of zymosan-stimulated prostaglandin E2 release in rat peritoneal leukocytes (radioimmunoassay); format: cell-based; conditions: peptide 100 μg/ml
Procedure: Rat peritoneal leukocytes were collected and purified as described by Parente and Flower (supra), then suspended in Krebs solution oxygenated with Carbogen at a final concentration of 1.10^6 cells/ml. Samples (1 ml) of said suspension were incubated in a thermostatic bath at 37° C. for 30 min in the presence (100 μg/ml) and in the absence (control) of the synthetic peptide 204-212. The incubation was maintained for a further 60 min at 37° C. after addition to each culture of 200 μg/ml Zymosan (activated by opsonization, i.e. incubated with mouse serum for 30 min at 37° C.). At the end of this time the cells were separated from the suspension by centrifugation at 10,000 rpm for 5 min using an Eppendorf centrifuge model 5414. The supernatants thus recovered were analysed by radioimmunoassay to monitor the prostaglandin E2 (PGE2) levels.

[2] = target: T1, phospholipase A2 (pig pancreas phospholipase preparation) (Sus scrofa, UniProt P00592); test: Inhibition of PLA2 induced contractions in rat stomach strip; conditions: peptide 20 μg/ml, 30 min; PLA2 4.4 μg/ml; mean of four samples
T1 construct: pig pancreas phospholipase preparation from Sigma; purchased Sigma; host or cells: pig pancreas (tissue-derived preparation)
T1 sequence (P00592 23-146): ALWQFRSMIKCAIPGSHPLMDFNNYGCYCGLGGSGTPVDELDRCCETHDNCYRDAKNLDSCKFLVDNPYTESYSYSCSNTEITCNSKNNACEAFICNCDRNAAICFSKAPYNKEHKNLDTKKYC
Procedure: The rat stomach bottom strip was prepared as originally described by Vane (Br. J. Pharmacol., 12: 344-349, 1957) and suspended in a small bath for resected organs, thermostated at 37° in Krebs solution. After two hours stabilisation in said bath, the stomach reacts to phospholipase A2 stimulation (pig pancreas phospholipase preparation from Sigma) by contracting. These contractions are recorded by means of an isotonic transductor on recorder (Firm Basile). The contracting effect of the PLA2 is concentration-dependent and a concentration of 4.4 μg/ml was used in the experiments with the peptide 204-212. The experiments were carried out as follows:
a) estimation of the stomach contracting effect by the PLA2 at the final concentration of 4.4 μg/ml (control value)
b) after thoroughly washing the strip, peptide (I) was added at the concentration of 20 μg/ml and the effect of the PLA2 was estimated again after 30 min (sample).

[3] = tested on: PLA2 induced oedema in rat paw; test: Inhibition of PLA2 induced oedema in rat paw; format: in vivo; conditions: 2 mg/Kg (400 μg) co-injected with 5 μg PLA2 into paw, mean of five
Procedure: The oedema induced by PLA2 in the rat paw was generated according to the modified technique of Marshall et al. (J. Cell Biochem. suppl. 12 E: S325, 1985). Practically, the enzyme phospholipase A2 (Naja Mocambique), with a specific activity of about 400 units/mg protein, was dissolved into a physiological solution comprising calcium chloride 1 mM to a final concentration of 100 μg/ml. Thereafter samples (0.5 ml) of said solution were diluted 1:1 (v/v) either with a physiological solution as such, or with a physiological solution comprising the synthetic peptide 204-212 at a concentration of 8 mg/ml. The thus obtained solutions were incubated at 37° C. for 15 min. At the end of this incubation period, 0.1 ml of the solutions either comprising 5 μg of PLA2 only, or additionally 400 μg of the synthetic peptide, were injected into the right back paw of male Wistar rats of 200 g weight (thus the synthetic peptide 204- 212 was given at a 2 mg/Kg dose). The oedema in the paw was measured by means of a water plesthysomometer 30 and 60 min after the injection. The results reported in Table 4 confirm the in vivo PLA2 inhibiting effect of the peptide 204-212.

[4] = tested on: carrageenin induced oedema in rat paw; test: Inhibition of carrageenin induced oedema in rat paw; format: in vivo; conditions: for Oedema 3 hours Inhibition %: 3 hours after carrageenin; for Oedema 4 hours Inhibition %: 4 hours after carrageenin
Procedure: The carrageenin induced oedema in the rat paw was generated as disclosed by Parente et al. (Eur. J. Pharmacol., 99: 233-239, (1984). Practically 0.1 ml physiological solution comprising 1% (w/v) lambda carrageenin (Sigma) were injected subcutaneously into the right back paw of male Wistar rats weighing 200 g pretreated as follows: 5 rats (control) were locally inoculated with 100 μl sterile physiological solution; 5 rats were locally injected with 100 μl physiological solution comprising […] (respectively corresponding to a dose of 2 and 0.5 mg/Kg) synthetic peptide 204-212. The oedema was measured with a water plethysmometer 3 and 4 hours after the carrageenin injection. The results in Table 5 show an inhibition of the oedema due to the peptide 204-212 and moreover that the extent of the inhibition is dose-dependent.

human fibroblasts = conditions: for Inhibition %: PGE2 release, bradykinin 1 μM
Procedure: Thereafter 0.2 ml of said suspension were placed into each well of a 96 flat bottomed well Cluster dish (firm Costar) and incubated at 37° C. for 72 hours. At the end of said period the cells were washed three times with 0.2 ml medium without serum and then incubated for 60 min at 37° C. as follows:
one part in 0.2 ml DMEM medium without bovine foetal serum (control);
Bradykinin (Sigma) was added thereafter to the final concentration of 1 μM to all the samples, and the incubation was maintained for a further 30 min. Finally the determination of PGE2 in the cell-free supernatants was carried out by making use of a radioimmunoassay.

## CC(C)C[C@H](NC(=O)[C@H](Cc1c[nH]cn1)NC(=O)[C@@H](N)CO)C(=O)N[C@@H](CCCNC(=N)N)C(=O)N[C@@H](CCCCN)C(=O)N[C@H](C(=O)N[C@@H](Cc1ccccc1)C(=O)N[C@@H](CC(=O)O)C(=O)N[C@@H](CCCCN)C(=O)O)C(C)C [Peptide 204-212, H-Ser-His-Leu-Arg-Lys-Val-Phe-Asp-Lys-X] (H-SHLRKVFDK-OH)
[1]; PGE2 release
  Inhibition %: 49.8%
[1]; 200 μg/ml opsonized Zymosan, supernatant PGE2 level, mean of three samples plus standard error, control 253.7 + 22.8
  PGE2: 129.0 + 16.9
[2]
  inhibition at 20 µg/mL: 60.5%
[3]; 30 min after injection
  Oedema 30 min: 25.4 ± 7.7
[3]; 60 min after injection
  Oedema 60 min: 25.4 ± 7.8
[4]; 0.5 mg/Kg local injection
  Oedema 3 hours Inhibition %: 22.7 ± 8.3%
  Oedema 4 hours Inhibition %: 13.7 ± 5.1%
[4]; 2.0 mg/Kg local injection
  Oedema 3 hours Inhibition %: 37.0 ± 3.3%
  Oedema 4 hours Inhibition %: 37.5 ± 10.1%
Human fibroblasts
  ED 50: 1.13 µg/mL (≈ 1 µM)
Human fibroblasts; 1 ng/ml
  Inhibition %: 0%
Human fibroblasts; 10 ng/ml
  Inhibition %: 16 ± 2%
Human fibroblasts; 100 ng/ml
  Inhibition %: 41 ± 7%
Human fibroblasts; 1 μg/ml
  Inhibition %: 43 ± 4%
Human fibroblasts; 10 μg/ml
  Inhibition %: 63 ± 7%
Human fibroblasts; 100 μg/ml
  Inhibition %: 94 ± 6%
